Assay: Analytical results of the Macadamia esters (Table I)
Format: physicochemical
Experimental: An analysis of the esters was conducted as to appearance, color, surface tension, spreading coefficient, freezing point, percentage of water, refractive index, and specific gravity.

Substance	Spreading Coeffecient (° C.)	Viscosity (CPS)	Interfacial Tension (25° C.)	Surface Tension (25° C.)
Ceteareth-4 Macadamiate	32.15	120	8.35	32.50
C12-15 Pareth-7 Macadamiate	31.50	100	8.50	32.00
PPG-3 Myristyl Ether Macadamiate	34.00	80	7.00	31.0
Isostearyl Macadamiate	32.75	40	7.75	31.5

From patent US20060210520A1, “Macadamia lipid based surfactants and derivatives and process for preparing same” (Finetex, Inc., priority 2005, published 2006)
